Assay results reported in the supplement of paper PMC10307832.

Tests used:
Assay in all cases: relative viability (nuclei count vs DMSO), 5 days (fraction); higher = more cells survive
A-427 = tested on: A-427
In short: (§1)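 Relative viability is defined as nuclei in treated wells over nuclei in vehicle wells. Duplicate plates were run and medians reported. Lung cancer cell lines in 1536-well plates were dosed by pin tool one day after seeding, with one drug or with a fixed anchor-drug dose plus five library-drug doses (not always all listed) in √10 steps, and nuclei were counted after 5 days.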

HCC-15 = tested on: HCC-15
In short: as §1

HCC-78 = tested on: HCC-78
In short: as §1

HOP-62 = tested on: HOP-62
In short: as §1

LC-2-ad = tested on: LC-2-ad
In short: as §1

LXF-289 = tested on: LXF-289
In short: as §1

NCI-H1734 = tested on: NCI-H1734
In short: as §1

NCI-H1755 = tested on: NCI-H1755
In short: as §1

NCI-H1792 = tested on: NCI-H1792
In short: as §1

NCI-H1915 = tested on: NCI-H1915
In short: as §1

NCI-H1975 = tested on: NCI-H1975
In short: as §1

NCI-H2126 = tested on: NCI-H2126
In short: as §1

NCI-H2228 = tested on: NCI-H2228
In short: as §1

NCI-H2347 = tested on: NCI-H2347
In short: as §1

NCI-H647 = tested on: NCI-H647
In short: as §1

PC-3 [JPC-3] = tested on: PC-3 [JPC-3]
In short: as §1

RERF-LC-KJ = tested on: RERF-LC-KJ
In short: as §1

SK-LU-1 = tested on: SK-LU-1
In short: as §1

SW 1573 = tested on: SW 1573
In short: as §1

How did the relative viability (A-427; first compound 0.08 µM) turn out when `O=c1cc(-c2cccc3c2Sc2ccccc2S3)oc(N2CCOCC2)c1` + CC1(C)CCC(c2ccc(Cl)cc2)=C(CN2CCN(c3ccc(C(=O)NS(=O)(=O)c4ccc(N[C@H](CCN5CCOCC5)CSc5ccccc5)c(S(=O)(=O)C(F)(F)F)c4)cc3)CC2)C1 [Navitoclax] (partner 0.5 µM) was run?
Its relative viability is 0.962.

And the relative viability (A-427; first compound 0.253 µM)?
Its relative viability is 0.909.

And the relative viability (A-427; first compound 0.8 µM)?
The relative viability was 1.07.

And the relative viability (A-427; first compound 2.53 µM)?
Its relative viability is 0.906.

And the relative viability (A-427; first compound 8 µM)?
Its relative viability is 0.934.

What about the relative viability (HCC-15; first compound 0.08 µM) of the same compound?
Its relative viability is 0.68.

What about the relative viability (HCC-15; first compound 0.253 µM) of the same compound?
Its relative viability is 0.866.

What about the relative viability (HCC-15; first compound 0.8 µM) of the same compound?
Its relative viability is 0.615.

And the relative viability (HCC-15; first compound 2.53 µM)?
Its relative viability is 0.66.

What about the relative viability (HCC-15; first compound 8 µM) of the same compound?
The relative viability was 0.705.

What about the relative viability (HCC-78; first compound 0.08 µM) of the same compound?
The relative viability was 0.806.

And the relative viability (HCC-78; first compound 0.253 µM)?
Its relative viability is 0.978.

What about the relative viability (HCC-78; first compound 0.8 µM) of the same compound?
Its relative viability is 0.767.

What about the relative viability (HCC-78; first compound 2.53 µM) of the same compound?
The relative viability was 0.779.

What about the relative viability (HCC-78; first compound 8 µM) of the same compound?
The relative viability was 0.816.

What about the relative viability (HOP-62; first compound 0.08 µM) of the same compound?
The relative viability was 1.09.

And the relative viability (HOP-62; first compound 0.253 µM)?
Its relative viability is 1.43.

And the relative viability (HOP-62; first compound 0.8 µM)?
The relative viability was 1.21.

What about the relative viability (HOP-62; first compound 2.53 µM) of the same compound?
Its relative viability is 0.902.

What about the relative viability (HOP-62; first compound 8 µM) of the same compound?
Its relative viability is 1.28.

What about the relative viability (LC-2-ad; first compound 0.08 µM) of the same compound?
Its relative viability is 0.363.

What about the relative viability (LC-2-ad; first compound 0.253 µM) of the same compound?
Its relative viability is 0.666.

What about the relative viability (LC-2-ad; first compound 0.8 µM) of the same compound?
The relative viability was 0.375.

What about the relative viability (LC-2-ad; first compound 2.53 µM) of the same compound?
Its relative viability is 0.421.

And the relative viability (LC-2-ad; first compound 8 µM)?
The relative viability was 0.403.

What about the relative viability (LXF-289; first compound 0.08 µM) of the same compound?
The relative viability was 0.996.

What about the relative viability (LXF-289; first compound 0.253 µM) of the same compound?
The relative viability was 1.06.

What about the relative viability (LXF-289; first compound 0.8 µM) of the same compound?
Its relative viability is 1.03.

And the relative viability (LXF-289; first compound 2.53 µM)?
Its relative viability is 0.951.

And the relative viability (LXF-289; first compound 8 µM)?
The relative viability was 1.

What about the relative viability (NCI-H1734; first compound 0.08 µM) of the same compound?
Its relative viability is 0.845.

What about the relative viability (NCI-H1734; first compound 0.253 µM) of the same compound?
The relative viability was 1.13.

And the relative viability (NCI-H1734; first compound 0.8 µM)?
Its relative viability is 1.06.

What about the relative viability (NCI-H1734; first compound 2.53 µM) of the same compound?
The relative viability was 0.818.

What about the relative viability (NCI-H1734; first compound 8 µM) of the same compound?
The relative viability was 1.02.

And the relative viability (NCI-H1755; first compound 0.08 µM)?
The relative viability was 1.05.

And the relative viability (NCI-H1755; first compound 0.253 µM)?
The relative viability was 1.13.

And the relative viability (NCI-H1755; first compound 0.8 µM)?
The relative viability was 0.992.

And the relative viability (NCI-H1755; first compound 2.53 µM)?
Its relative viability is 0.988.

What about the relative viability (NCI-H1755; first compound 8 µM) of the same compound?
Its relative viability is 0.939.

What about the relative viability (NCI-H1792; first compound 0.253 µM) of the same compound?
The relative viability was 0.761.

What about the relative viability (NCI-H1792; first compound 0.8 µM) of the same compound?
Its relative viability is 0.471.

And the relative viability (NCI-H1792; first compound 2.53 µM)?
The relative viability was 0.555.

And the relative viability (NCI-H1792; first compound 8 µM)?
The relative viability was 0.689.

What about the relative viability (NCI-H1915; first compound 0.08 µM) of the same compound?
The relative viability was 0.776.

What about the relative viability (NCI-H1915; first compound 0.253 µM) of the same compound?
Its relative viability is 0.847.

What about the relative viability (NCI-H1915; first compound 0.8 µM) of the same compound?
The relative viability was 0.795.

What about the relative viability (NCI-H1915; first compound 2.53 µM) of the same compound?
The relative viability was 0.787.

And the relative viability (NCI-H1915; first compound 8 µM)?
The relative viability was 0.872.

What about the relative viability (NCI-H1975; first compound 0.08 µM) of the same compound?
The relative viability was 1.2.

And the relative viability (NCI-H1975; first compound 0.253 µM)?
Its relative viability is 1.4.

And the relative viability (NCI-H1975; first compound 0.8 µM)?
The relative viability was 1.35.

And the relative viability (NCI-H1975; first compound 2.53 µM)?
Its relative viability is 1.16.

What about the relative viability (NCI-H1975; first compound 8 µM) of the same compound?
The relative viability was 0.997.

And the relative viability (NCI-H2126; first compound 0.08 µM)?
The relative viability was 0.808.

What about the relative viability (NCI-H2126; first compound 0.253 µM) of the same compound?
The relative viability was 0.974.

What about the relative viability (NCI-H2126; first compound 0.8 µM) of the same compound?
The relative viability was 0.8.

And the relative viability (NCI-H2126; first compound 2.53 µM)?
The relative viability was 0.826.

And the relative viability (NCI-H2126; first compound 8 µM)?
The relative viability was 0.849.

What about the relative viability (NCI-H2228; first compound 0.08 µM) of the same compound?
Its relative viability is 1.17.

What about the relative viability (NCI-H2228; first compound 0.253 µM) of the same compound?
Its relative viability is 0.902.

And the relative viability (NCI-H2228; first compound 0.8 µM)?
The relative viability was 0.818.

And the relative viability (NCI-H2228; first compound 2.53 µM)?
The relative viability was 0.87.

What about the relative viability (NCI-H2228; first compound 8 µM) of the same compound?
Its relative viability is 0.852.

What about the relative viability (NCI-H2347; first compound 0.08 µM) of the same compound?
The relative viability was 0.855.

What about the relative viability (NCI-H2347; first compound 0.253 µM) of the same compound?
The relative viability was 1.08.

What about the relative viability (NCI-H2347; first compound 0.8 µM) of the same compound?
The relative viability was 0.799.

What about the relative viability (NCI-H2347; first compound 2.53 µM) of the same compound?
The relative viability was 0.839.

What about the relative viability (NCI-H2347; first compound 8 µM) of the same compound?
Its relative viability is 0.969.

What about the relative viability (NCI-H647; first compound 0.08 µM) of the same compound?
The relative viability was 1.2.

And the relative viability (NCI-H647; first compound 0.253 µM)?
The relative viability was 1.15.

What about the relative viability (NCI-H647; first compound 0.8 µM) of the same compound?
Its relative viability is 1.12.

What about the relative viability (NCI-H647; first compound 2.53 µM) of the same compound?
Its relative viability is 1.04.

And the relative viability (NCI-H647; first compound 8 µM)?
The relative viability was 1.37.

And the relative viability (PC-3 [JPC-3]; first compound 0.08 µM)?
The relative viability was 0.836.

What about the relative viability (PC-3 [JPC-3]; first compound 0.253 µM) of the same compound?
Its relative viability is 0.779.

And the relative viability (PC-3 [JPC-3]; first compound 0.8 µM)?
Its relative viability is 0.897.

And the relative viability (PC-3 [JPC-3]; first compound 2.53 µM)?
Its relative viability is 0.767.

What about the relative viability (PC-3 [JPC-3]; first compound 8 µM) of the same compound?
The relative viability was 0.992.

And the relative viability (RERF-LC-KJ; first compound 0.08 µM)?
The relative viability was 0.768.

What about the relative viability (RERF-LC-KJ; first compound 0.253 µM) of the same compound?
Its relative viability is 0.711.

What about the relative viability (RERF-LC-KJ; first compound 0.8 µM) of the same compound?
The relative viability was 0.934.

And the relative viability (RERF-LC-KJ; first compound 2.53 µM)?
The relative viability was 0.798.

What about the relative viability (RERF-LC-KJ; first compound 8 µM) of the same compound?
The relative viability was 0.856.

And the relative viability (SK-LU-1; first compound 0.08 µM)?
The relative viability was 0.684.

And the relative viability (SK-LU-1; first compound 0.253 µM)?
The relative viability was 0.924.

And the relative viability (SK-LU-1; first compound 0.8 µM)?
The relative viability was 0.787.

What about the relative viability (SK-LU-1; first compound 2.53 µM) of the same compound?
Its relative viability is 1.02.

And the relative viability (SK-LU-1; first compound 8 µM)?
Its relative viability is 1.09.

What about the relative viability (SW 1573; first compound 0.08 µM) of the same compound?
The relative viability was 0.999.

And the relative viability (SW 1573; first compound 0.253 µM)?
The relative viability was 1.14.

What about the relative viability (SW 1573; first compound 0.8 µM) of the same compound?
The relative viability was 1.04.

And the relative viability (SW 1573; first compound 2.53 µM)?
The relative viability was 1.12.

And the relative viability (SW 1573; first compound 8 µM)?
The relative viability was 1.17.
